Assay results from paper PMC9981942, “Pharmacokinetics and tissue distribution of Ramulus Mori (Sangzhi) alkaloids in rats and its effects on liver enzyme activity” (Frontiers in Pharmacology, 2023).
Several values for one entry are separate records, joined by “and”; a condition that tells them apart may be missing. Identical values can stand only once. Like-named read-outs stand apart in the source and are kept apart here. Blank lines part the entries; values can stand above or below the compound they belong to.

Experiments:
[1] = Tissue distribution after single oral SZ-A (40 mg/kg) in SD rats, plasma and 12 tissues; assay type: in vivo; conditions: for CLz / Vz / half-life / Cmax: n=5; for half-life / AUC(0-t) / Tmax / Cmax: rat; for AUC(0-t): n=5, read-out: AUC(0-t); for accumulation in tissues: up to 12 h
Description: (§1) Twenty SD rats were randomly classified into four groups corresponding to four-time points (5 and 30 min, 4 and 12 h) (n = 20; 5 animals per time point) that received SZ-A solution (40 mg/kg) via oral administration. After the completion of dose administration, plasma and tissue samples (derived from the heart, liver, spleen, lung, kidney, aortic blood vessels, brown adipose tissue, subcutaneous adipose tissue, abdominal adipose tissue, muscle (thigh skeletal muscle), pancreas, and brain) were collected at predetermined time points. Twenty-eight ICR mice were randomly classified into four groups (n = 7 per group) corresponding to four-time points (5 and 30 min, 4 and 12 h) that received SZ-A solution (20 mg/kg) via oral administration. After the completion of dose administration, tissue samples (derived from the heart, liver, spleen, lung, kidney, aortic blood vessels, brown adipose tissue, abdominal adipose tissue, muscle (thigh skeletal muscle), pancreas, and brain) were collected at predetermined time points.
(§2) Collected tissue samples were washed with normal saline. The surface moisture was removed by blotting gently with filter paper, and the weight was recorded. After adding an appropriate amount of normal saline, these tissue samples were ground into homogenates using a cryogenic grinder (JX-CL, Shanghai Jingxin, Shanghai, China). The obtained homogenates were stored at −80°C until LC-MS/MS analysis.
Primary pharmacokinetic parameters, including Cmax, Tmax, area under the plasma concentration-time curve (AUC), t1/2, clearance rate, and the apparent volume of distribution, were calculated using DAS 3.2.8 (Bio Guider Co., Shanghai, China).

[2] = Tissue distribution after single oral SZ-A (20 mg/kg) in ICR mice; assay type: in vivo
Description: as §1, §2

[3] = Identification of metabolites in HLMs/RLMs and rat plasma (Q-Extractive high-resolution MS); assay type: in vitro ADME, human; conditions: HLMs/RLMs and rat plasma reaction system
Description: Furthermore, 5 μL of the supernatant was collected for LC-MS/MS analysis. The LC-MS/MS conditions were as follows: chromatographic column (XBridge™ Amide, 3.5 µm, 4.6 × 150 mm); mobile phase, water (0.1% ammonia) and acetonitrile, other conditions are the same as those in CYP450s inhibition study, with the following scan parameters: resolution, 70,000; AGC target, 3,000,000; maximum IT, 200 ms; and scan range, 50–600 m/z.

[4] = set-up: method as in Yang et al., 2017; conditions: ref Yang et al., 2017, cited from earlier work; for form excreted: material conservation within 24 h after oral administration of SZ-A; for oral absolute bioavailability / pharmacokinetic profile versus dose: rats; for oral absolute bioavailability: after oral administration of SZ-A; for pharmacokinetic profile versus dose: oral SZ-A 20–500 mg/kg
rat CYP2C11 = target: T1, rat CYP2C11 (Rattus norvegicus, UniProt P08683); assay: Inhibition of CYP450s in rat liver microsomes, probe mephenytoin; conditions: RLMs; SZ-A 8.899 μg/mL, DNJ 20 μM, FA 5 μM, DAB 8 μM
T1 sequence (P08683 1-500): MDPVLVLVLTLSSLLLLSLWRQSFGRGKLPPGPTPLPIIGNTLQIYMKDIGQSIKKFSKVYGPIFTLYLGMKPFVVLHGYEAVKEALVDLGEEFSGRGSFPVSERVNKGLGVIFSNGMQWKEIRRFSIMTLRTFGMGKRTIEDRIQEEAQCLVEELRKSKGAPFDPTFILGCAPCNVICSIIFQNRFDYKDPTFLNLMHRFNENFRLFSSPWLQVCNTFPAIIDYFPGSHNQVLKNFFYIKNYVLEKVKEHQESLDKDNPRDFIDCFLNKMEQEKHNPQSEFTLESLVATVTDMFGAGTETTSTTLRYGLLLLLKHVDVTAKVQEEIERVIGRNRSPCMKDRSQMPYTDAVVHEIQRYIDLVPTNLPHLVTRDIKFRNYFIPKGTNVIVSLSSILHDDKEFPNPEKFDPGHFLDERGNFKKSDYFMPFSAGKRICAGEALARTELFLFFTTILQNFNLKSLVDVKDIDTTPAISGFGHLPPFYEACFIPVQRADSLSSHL

major CYP450s in HLMs = assay: Effect on activity of the major CYP450s in human liver microsomes (all isoforms together); conditions: final concentration SZ-A 8.899 μg/mL (equivalent to DNJ 20 μM), FA 5 μM, DAB 8 μM
[5] = Sprague-Dawley, Brown adipose tissue
[6] = Sprague-Dawley, Brown adipose tissue, n=5, read-out: Tmax
[7] = Sprague-Dawley, Kidney, n=5, read-out: Tmax
[8] = Sprague-Dawley, Liver, n=5, read-out: Tmax
[9] = Sprague-Dawley, Lung, n=5, read-out: Tmax
[10] = Sprague-Dawley, Pancreas, n=5, read-out: Tmax
[11] = Sprague-Dawley, Plasma, n=5, read-out: Tmax
[12] = Sprague-Dawley, muscle (thigh skeletal muscle), Muscle
[13] = Sprague-Dawley, muscle (thigh skeletal muscle), Muscle, n=5, read-out: Tmax
[14] = Abdominal adipose tissue, n=5, read-out: Tmax
[15] = Aortic blood vessels, n=5, read-out: Tmax
[16] = Subcutaneous adipose tissue, n=5, read-out: Tmax
[17] = other tissues (not named), tissues not named separately for that alkaloid, read-out: time of peak concentration in other tissues (converted)

time of maximum drug concentration in heart, muscle, lung, and aortic vessels [1]: 5 min | CLz ([1]; Plasma): 65.8 ± 15 mL/min/kg | Vz ([1]; Plasma): 4.39 ± 2.04 L/kg | half-life [1, 5]: 139 ± 139 min | AUC(0-t) [1, 5]: 1480 ± 380 ng·h/mL | Tmax [1, 6]: 19.8 ± 13.8 min | Cmax ([1]; Sprague-Dawley, Kidney): 8970 ± 1680 ng/mL | half-life ([1]; Sprague-Dawley, Kidney): 139 ± 72.6 min | AUC(0-t) ([1]; Sprague-Dawley, Kidney): 27000 ± 8880 ng·h/mL | Tmax [1, 7]: 25.2 ± 11.4 min | Cmax ([1]; Sprague-Dawley, Liver): 1130 ± 187 ng/mL | half-life ([1]; Sprague-Dawley, Liver): 36 ± 0.6 min | AUC(0-t) ([1]; Sprague-Dawley, Liver): 2990 ± 1030 ng·h/mL | Tmax [1, 8]: 25.2 ± 11.4 min | Cmax ([1]; Sprague-Dawley, Lung): 248 ± 5.46 ng/mL | half-life ([1]; Sprague-Dawley, Lung): 31.2 ± 15.6 min | Tmax [1, 9]: 13.2 ± 14.4 min | Cmax ([1]; Sprague-Dawley, Pancreas): 96.9 ± 13.9 ng/mL | half-life ([1]; Sprague-Dawley, Pancreas): 42 ± 2.4 min | AUC(0-t) ([1]; Sprague-Dawley, Pancreas): 705 ± 118 ng·h/mL | Tmax [1, 10]: 114 ± 115 min | Cmax ([1]; Sprague-Dawley, Plasma): 692 ± 135 ng/mL | half-life ([1]; Sprague-Dawley, Plasma): 46.8 ± 22.8 min | AUC(0-t) ([1]; Sprague-Dawley, Plasma): 1800 ± 421 ng·h/mL | Tmax [1, 11]: 25.2 ± 11.4 min | Cmax [1, 12]: 175 ± 91.2 ng/mL | half-life [1, 12]: 40.8 ± 2.4 min | AUC(0-t) [1, 12]: 577 ± 298 ng·h/mL | Tmax [1, 13]: 19.8 ± 13.8 min | Cmax ([1]; Abdominal adipose tissue): 221 ± 137 ng/mL | half-life ([1]; Abdominal adipose tissue): 38.4 ± 15 min | AUC(0-t) ([1]; Abdominal adipose tissue): 409 ± 127 ng·h/mL | Tmax [1, 14]: 25.2 ± 11.4 min | Cmax ([1]; Aortic blood vessels): 1090 ± 760 ng/mL | half-life ([1]; Aortic blood vessels): 27 ± 14.4 min | AUC(0-t) ([1]; Aortic blood vessels): 1060 ± 367 ng·h/mL | Tmax [1, 15]: 4.8 min | Cmax ([1]; Brown adipose tissue): 463 ± 161 ng/mL | Cmax ([1]; Heart): 128 ± 33.6 ng/mL | half-life ([1]; Heart): 42.6 ± 0.6 min | AUC(0-t) ([1]; Heart): 382 ± 246 ng·h/mL | Tmax ([1]; Heart, n=5, read-out: Tmax): 10.2 ± 11.4 min | AUC(0-t) ([1]; Lung): 367 ± 136 ng·h/mL | Cmax ([1]; Spleen): 198 ± 77.7 ng/mL | half-life ([1]; Spleen): 42 ± 4.8 min | AUC(0-t) ([1]; Spleen): 491 ± 264 ng·h/mL | Tmax ([1]; Spleen, n=5, read-out: Tmax): 30 min | Cmax ([1]; Subcutaneous adipose tissue): 102 ± 52 ng/mL | half-life ([1]; Subcutaneous adipose tissue): 44.4 ± 1.8 min | AUC(0-t) ([1]; Subcutaneous adipose tissue): 212 ± 95 ng·h/mL | Tmax [1, 16]: 15 ± 13.8 min | Tmax [1, 17]: 30 min | accumulation in tissues [1]: no long-term accumulation | tissues with the highest concentrations [2]: kidney, followed by the liver | metabolites found [3]: only trace oxidation products | effect on rat CYP2C11 (rat CYP2C11): mild activation effect | effect on the major CYP450s in HLMs, either inhibition or activation (major CYP450s in HLMs): no significant effect
SMILES: OC[C@H]1NCC[C@@H](O)[C@@H]1O [FA, fagomine]
tissues with the highest concentrations [1]: kidney, followed by the liver, aortic vessels, and brown adipose tissue | form excreted [4]: mainly excreted in their original forms | oral absolute bioavailability [4]: 77.50% and > 70% | pharmacokinetic profile versus dose [4]: non-linear pharmacokinetics

peak time in the brain [1]: 4 h | CLz ([1]; Plasma): 35.7 ± 5.17 mL/min/kg | Vz ([1]; Plasma): 1.59 ± 0.29 L/kg | half-life [1, 5]: 26.4 ± 13.2 min | AUC(0-t) [1, 5]: 3750 ± 995 ng·h/mL | Tmax [1, 6]: 30 min | Cmax ([1]; Sprague-Dawley, Kidney): 68200 ± 12400 ng/mL | half-life ([1]; Sprague-Dawley, Kidney): 148 ± 30.6 min | AUC(0-t) ([1]; Sprague-Dawley, Kidney): 174000 ± 37100 ng·h/mL | Tmax [1, 7]: 30 min | Cmax ([1]; Sprague-Dawley, Liver): 3300 ± 893 ng/mL | half-life ([1]; Sprague-Dawley, Liver): 33 ± 0.6 min | AUC(0-t) ([1]; Sprague-Dawley, Liver): 7560 ± 1840 ng·h/mL | Tmax [1, 8]: 25.2 ± 11.4 min | Cmax ([1]; Sprague-Dawley, Lung): 806 ± 23.5 ng/mL | half-life ([1]; Sprague-Dawley, Lung): 28.2 ± 14.4 min | Tmax [1, 9]: 13.2 ± 14.4 min | Cmax ([1]; Sprague-Dawley, Pancreas): 386 ± 124 ng/mL | half-life ([1]; Sprague-Dawley, Pancreas): 130 ± 205 min | AUC(0-t) ([1]; Sprague-Dawley, Pancreas): 2190 ± 614 ng·h/mL | Tmax [1, 10]: 30 min | Cmax ([1]; Sprague-Dawley, Plasma): 5830 ± 843 ng/mL | half-life ([1]; Sprague-Dawley, Plasma): 31.2 ± 1.2 min | AUC(0-t) ([1]; Sprague-Dawley, Plasma): 13700 ± 1970 ng·h/mL | Tmax [1, 11]: 30 min | Cmax [1, 12]: 725 ± 279 ng/mL | half-life [1, 12]: 45.6 ± 18 min | AUC(0-t) [1, 12]: 2640 ± 544 ng·h/mL | Tmax [1, 13]: 19.8 ± 13.8 min | Cmax ([1]; Abdominal adipose tissue): 1270 ± 428 ng/mL | half-life ([1]; Abdominal adipose tissue): 102 ± 135 min | AUC(0-t) ([1]; Abdominal adipose tissue): 3730 ± 1010 ng·h/mL | Tmax [1, 14]: 25.2 ± 11.4 min | Cmax ([1]; Aortic blood vessels): 4360 ± 2870 ng/mL | half-life ([1]; Aortic blood vessels): 36 ± 6.6 min | AUC(0-t) ([1]; Aortic blood vessels): 6230 ± 1790 ng·h/mL | Tmax [1, 15]: 4.8 min | Cmax ([1]; Brain): 242 ± 50.3 ng/mL | half-life ([1]; Brain): 482 ± 430 min | AUC(0-t) ([1]; Brain): 2060 ± 562 ng·h/mL | Tmax ([1]; Brain, n=5, read-out: Tmax): 151 ± 122 min | Cmax ([1]; Brown adipose tissue): 1420 ± 513 ng/mL | Cmax ([1]; Heart): 588 ± 140 ng/mL | half-life ([1]; Heart): 31.8 ± 11.4 min | AUC(0-t) ([1]; Heart): 1340 ± 373 ng·h/mL | Tmax ([1]; Heart, n=5, read-out: Tmax): 10.2 ± 11.4 min | AUC(0-t) ([1]; Lung): 1220 ± 501 ng·h/mL | Cmax ([1]; Spleen): 660 ± 225 ng/mL | half-life ([1]; Spleen): 37.2 ± 1.8 min | AUC(0-t) ([1]; Spleen): 1880 ± 845 ng·h/mL | Tmax ([1]; Spleen, n=5, read-out: Tmax): 30 min | Cmax ([1]; Subcutaneous adipose tissue): 577 ± 163 ng/mL | half-life ([1]; Subcutaneous adipose tissue): 37.8 min | AUC(0-t) ([1]; Subcutaneous adipose tissue): 1210 ± 304 ng·h/mL | Tmax [1, 16]: 30 min | Tmax ([1]; heart, aortic vessels, read-out: time of peak concentration in heart and aortic vessels (converted)): 5 min | Tmax [1, 17]: 30 min | accumulation in tissues [1]: no long-term accumulation | distribution in aortic vessels compared with other tissues [2]: lower than that in other tissues | tissues with the highest concentrations [2]: kidney, followed by the liver | effect on rat CYP2C11 (rat CYP2C11): mild activation effect | effect on the major CYP450s in HLMs, either inhibition or activation (major CYP450s in HLMs): no significant effect
SMILES: OC[C@H]1NC[C@H](O)[C@@H](O)[C@@H]1O [DNJ, 1-deoxynojirimycin]
tissues with the highest concentrations [1]: kidney, followed by the liver, aortic vessels, and brown adipose tissue | metabolites found [3]: no detectable phase I and phase II metabolites | form excreted [4]: mainly excreted in their original forms | oral absolute bioavailability [4]: 72.41% and > 70% | pharmacokinetic profile versus dose [4]: non-linear pharmacokinetics
